Measured values published in patent US20240368150A1 (Hoffmann-La Roche Inc., priority 2021, published 2024).
Like-named read-outs stand apart in the source and are kept apart here.

What was measured:
primary human T-cells [1] = assay: Proliferation assay after 5 days (CellTiter-Glo, CD3 stimulation; PBS counter screen); format: cell-based; conditions: Homo sapiens, T-cell, 120 h, CD3 stimulation; for Emax: 5 days, normalized to reference compound A1 as stimulator control = 100%, DMSO neutral control, read-out: Emax proliferation (% activation); for EC50: primary human T-cells, CellTiter-Glo after 5 days, EC50 of fitted sigmoidal curve, read-out: Tcell Proliferation CD3 EC50
Outline: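 After compound addition to medium-only plates, cells are cultured 5 days, equilibrated to room temperature, mixed with an equal volume of CellTiter-Glo 2.0 and rocked 15 min before luminescence is read. Signal reflects ATP content, taken as proportional to cell number.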

primary human T-cells [2] = test system: primary human T-cells

Row | Compound | EC50 (primary human T-cells [2]) | Emax (primary human T-cells [1]) | EC50 (primary human T-cells [1])
1 | COC(=O)N1CCCC(c2nnc(-c3cc4c(cc3F)S(=O)(=O)C[C@H](N)C(=O)N4Cc3ccc(Cl)cc3)o2)C1 (stereo partly drawn) [Example 165, methyl 3-[5-[(3R)-3-amino-5-[(4-chlorophenyl)methyl]-8-fluoro-1,1,4-trioxo-2,3-dihydro-1λ^6,5-benzothiazepin-7-yl]-1,3,4-oxadiazol-2-yl]piperidine-1-carboxylate] | 458 nM | 85% | 309 nM
2 | COC(=O)N1CCC(c2nnc(-c3cc4c(cc3F)S(=O)(=O)C[C@H](N)C(=O)N4Cc3ccc(Cl)cc3)o2)CC1 [Example 167, methyl 4-[5-[(3R)-3-amino-5-[(4-chlorophenyl)methyl]-8-fluoro-1,1,4-trioxo-2,3-dihydro-1λ^6,5-benzothiazepin-7-yl]-1,3,4-oxadiazol-2-yl]piperidine-1-carboxylate] | 122 nM | 100% | 208 nM
3 | CC(=O)N1CCC(c2nnc(-c3cc4c(cc3F)S(=O)(=O)C[C@H](N)C(=O)N4Cc3ccc(Cl)cc3)o2)CC1 [Example 168, (3R)-7-[5-(1-acetyl-4-piperidyl)-1,3,4-oxadiazol-2-yl]-3-amino-5-[(4-chlorophenyl)methyl]-8-fluoro-1,1-dioxo-2,3-dihydro-1λ^6,5-benzothiazepin-4-one] | 1590 nM | 63% | 4950 nM
4 | CC(=O)N1CCC(C)(c2nnc(-c3cc4c(cc3F)S(=O)(=O)C[C@H](N)C(=O)N4Cc3ccc(Cl)cc3)o2)CC1 [Example 169, (3R)-7-[5-(1-acetyl-4-methyl-4-piperidyl)-1,3,4-oxadiazol-2-yl]-3-amino-5-[(4-chlorophenyl)methyl]-8-fluoro-1,1-dioxo-2,3-dihydro-1λ^6,5-benzothiazepin-4-one] | 3340 nM | 95% | 2470 nM
5 | CC(=O)N1CC2CC(c3nnc(-c4cc5c(cc4F)S(=O)(=O)C[C@H](N)C(=O)N5Cc4ccc(Cl)cc4)o3)(C2)C1 [Example 173, (3R)-7-[5-(3-acetyl-3-azabicyclo[3.1.1]heptan-1-yl)-1,3,4-oxadiazol-2-yl]-3-amino-5-1[(4-chlorophenyl)methyl]-8-fluoro-1,1-dioxo-2,3-dihydro-1λ^6,5-benzothiazepin-4-one] | 2180 nM | 89% | 596 nM
6 | CS(=O)(=O)N1CC2CC(c3nnc(-c4cc5c(cc4F)S(=O)(=O)C[C@H](N)C(=O)N5Cc4ccc(Cl)cc4)o3)(C2)C1 [Example 174, (3R)-3-amino-5-[(4-chlorophenyl)methyl]-8-fluoro-7-[5-(3-methylsulfonyl-3-azabicyclo[3.1.1]heptan-1-yl)-1,3,4-oxadiazol-2-yl]-1,1-dioxo-2,3-dihydro-1λ^6,5-benzothiazepin-4-one] | 2190 nM | 93% | 4460 nM
7 | CC(=O)N1CC(c2nnc(-c3cc4c(cc3F)S(=O)(=O)C[C@H](N)C(=O)N4Cc3ccc(Cl)cc3)o2)C2(CC2)C1 (stereo partly drawn) [Example 175, (3R)-7-[5-(5-acetyl-5-azaspiro[2.4]heptan-7-yl)-1,3,4-oxadiazol-2-yl]-3-amino-5-[(4-chlorophenyl)methyl]-8-fluoro-1,1-dioxo-2,3-dihydro-1λ^6,5-benzothiazepin-4-one] | > 10000 nM | 62% | 7040 nM
8 | COC(=O)N1CC(c2nnc(-c3cc4c(cc3F)S(=O)(=O)C[C@H](N)C(=O)N4Cc3ccc(Cl)cc3)o2)C2(CC2)C1 (stereo partly drawn) [Example 177, methyl 7-[5-[(3R)-3-amino-5-[(4-chlorophenyl)methyl]-8-fluoro-1,1,4-trioxo-2,3-dihydro-1λ^6,5-benzothiazepin-7-yl]-1,3,4-oxadiazol-2-yl]-5-azaspiro[2.4]heptane-5-carboxylate] | 1440 nM | 68% | 788 nM
9 | COC(=O)N1CCC2CC2(c2nnc(-c3cc4c(cc3F)S(=O)(=O)C[C@H](N)C(=O)N4Cc3ccc(Cl)cc3)o2)C1 (stereo partly drawn) [Example 178, methyl 1-[5-[(3R)-3-amino-5-[(4-chlorophenyl)methyl]-8-fluoro-1,1,4-trioxo-2,3-dihydro-1λ^6,5-benzothiazepin-7-yl]-1,3,4-oxadiazol-2-yl]-3-azabicyclo[4.1.0]heptane-3-carboxylate] | 333 nM | 105% | 206 nM
10 | CC(=O)N1CCC2CC2(c2nnc(-c3cc4c(cc3F)S(=O)(=O)C[C@H](N)C(=O)N4Cc3ccc(Cl)cc3)o2)C1 (stereo partly drawn) [Example 180, (3R)-7-[5-(3-acetyl-3-azabicyclo[4.1.0]heptan-1-yl)-1,3,4-oxadiazol-2-yl]-3-amino-5-[(4-chlorophenyl)methyl]-8-fluoro-1,1-dioxo-2,3-dihydro-1λ^6,5-benzothiazepin-4-one] | 2380 nM | 103% | 5710 nM
11 | CC(=O)N1CC2CC2(c2nnc(-c3cc4c(cc3F)S(=O)(=O)C[C@H](N)C(=O)N4Cc3ccc(Cl)cc3)o2)C1 (stereo partly drawn) [Example 182, (3R)-7-[5-(3-acetyl-3-azabicyclo[3.1.0]hexan-1-yl)-1,3,4-oxadiazol-2-yl]-3-amino-5-[(4-chlorophenyl)methyl]-8-fluoro-1,1-dioxo-2,3-dihydro-1λ^6,5-benzothiazepin-4-one] | 1590 nM | 38% | > 10000 nM
12 | COC(=O)N1CC2CC2(c2nnc(-c3cc4c(cc3F)S(=O)(=O)C[C@H](N)C(=O)N4Cc3ccc(Cl)cc3)o2)C1 (stereo partly drawn) [Example 183, methyl 1-[5-[(3R)-3-amino-5-[(4-chlorophenyl)methyl]-8-fluoro-1,1,4-trioxo-2,3-dihydro-1λ^6,5-benzothiazepin-7-yl]-1,3,4-oxadiazol-2-yl]-3-azabicyclo[3.1.0]hexane-3-carboxylate] | 43 nM | 131% | 336 nM
13 | N[C@H]1CS(=O)(=O)c2cc(F)c(-c3nnc(C(F)(F)C(F)(F)F)o3)cc2N(Cc2ccc(Cl)cc2)C1=O [Example 185, (3R)-3-amino-5-[(4-chlorophenyl)methyl]-8-fluoro-1,1-dioxo-7-[5-(1,1,2,2,2-pentafluoroethyl)-1,3,4-oxadiazol-2-yl]-2,3-dihydro-1λ^6,5-benzothiazepin-4-one] | 4930 nM | 13% | > 10000 nM

More lines, main results first:

Row | EC50 (primary human T-cells [2]) | Compound | Emax (primary human T-cells [1]) | EC50 (primary human T-cells [1])
14 | 99.7 nM | COC(=O)N1CC(c2nnc(-c3cc4c(cc3F)S(=O)(=O)C[C@H](N)C(=O)N4Cc3ccc(Cl)cc3)o2)CC(F)(F)C1 (stereo partly drawn) [Example 163, methyl 3,3-difluoro-5-[5-[(3R)-3-amino-5-[(4-chlorophenyl)methyl]-8-fluoro-1,1,4-trioxo-2,3-dihydro-1λ^6,5-benzothiazepin-7-yl]-1,3,4-oxadiazol-2-yl]piperidine-1-carboxylate] | 118% | 51.4 nM
15 | 708 nM | CS(=O)(=O)N1CC(c2nnc(-c3cc4c(cc3F)S(=O)(=O)C[C@H](N)C(=O)N4Cc3ccc(Cl)cc3)o2)CC(F)(F)C1 (stereo partly drawn) [Example 164, (3R)-3-amino-5-[(4-chlorophenyl)methyl]-7-[5-(5,5-difluoro-1-methylsulfonyl-3-piperidyl)-1,3,4-oxadiazol-2-yl]-8-fluoro-1,1-dioxo-2,3-dihydro-1λ^6,5-benzothiazepin-4-one] | 82% | 292 nM
16 | 567 nM | COC(=O)N1CCC(c2nnc(-c3cc4c(cc3F)S(=O)(=O)C[C@H](N)C(=O)N4Cc3ccc(Cl)cc3)o2)C1 (stereo partly drawn) [Example 166, methyl 3-[5-[(3R)-3-amino-5-[(4-chlorophenyl)methyl]-8-fluoro-1,1,4-trioxo-2,3-dihydro-1λ^6,5-benzothiazepin-7-yl]-1,3,4-oxadiazol-2-yl]pyrrolidine-1-carboxylate] | 104% | 904 nM
17 | 405 nM | CC1(c2nnc(-c3cc4c(cc3F)S(=O)(=O)C[C@H](N)C(=O)N4Cc3ccc(Cl)cc3)o2)CCN(S(C)(=O)=O)CC1 [Example 170, (3R)-3-amino-5-[(4-chlorophenyl)methyl]-8-fluoro-7-[5-(4-methyl-1-methylsulfonyl-4-piperidyl)-1,3,4-oxadiazol-2-yl]-1,1-dioxo-2,3-dihydro-1λ^6,5-benzothiazepin-4-one] | 97% | 1500 nM
18 | 1670 nM | COC(=O)N1CC(c2nnc(-c3cc4c(cc3F)S(=O)(=O)C[C@H](N)C(=O)N4Cc3ccc(Cl)cc3)o2)C1 [Example 172, methyl 3-[5-[(3R)-3-amino-5-[(4-chlorophenyl)methyl]-8-fluoro-1,1,4-trioxo-2,3-dihydro-1λ^6,5-benzothiazepin-7-yl]-1,3,4-oxadiazol-2-yl]azetidine-1-carboxylate] | 190% | 2940 nM
19 | 2510 nM | CS(=O)(=O)N1CC(c2nnc(-c3cc4c(cc3F)S(=O)(=O)C[C@H](N)C(=O)N4Cc3ccc(Cl)cc3)o2)C2(CC2)C1 (stereo partly drawn) [Example 176, (3R)-3-amino-5-[(4-chlorophenyl)methyl]-8-fluoro-7-[5-(5-methylsulfonyl-5-azaspiro[2.4]heptan-7-yl)-1,3,4-oxadiazol-2-yl]-1,1-dioxo-2,3-dihydro-1λ^6,5-benzothiazepin-4-one] | 70% | 4280 nM
20 | 335 nM | CS(=O)(=O)N1CCC2CC2(c2nnc(-c3cc4c(cc3F)S(=O)(=O)C[C@H](N)C(=O)N4Cc3ccc(Cl)cc3)o2)C1 (stereo partly drawn) [Example 179, (3R)-3-amino-5-[(4-chlorophenyl)methyl]-8-fluoro-7-[5-(3-methylsulfonyl-3-azabicyclo[4.1.0]heptan-1-yl)-1,3,4-oxadiazol-2-yl]-1,1-dioxo-2,3-dihydro-1λ^6,5-benzothiazepin-4-one] | 80% | 1580 nM
21 | 1990 nM | CS(=O)(=O)N1CC2CC2(c2nnc(-c3cc4c(cc3F)S(=O)(=O)C[C@H](N)C(=O)N4Cc3ccc(Cl)cc3)o2)C1 (stereo partly drawn) [Example 181, (3R)-3-amino-5-[(4-chlorophenyl)methyl]-8-fluoro-7-[5-(3-methylsulfonyl-3-azabicyclo[3.1.0]hexan-1-yl)-1,3,4-oxadiazol-2-yl]-1,1-dioxo-2,3-dihydro--benzothiazepin-4-one] | 107% | 7830 nM
